# Assays:
# Format in all cases: functional
# OVCAR-3 [1] = experiment: Growth inhibition of human OVCAR3 cells by sulforhodamine B assay
# MCF7 = experiment: Growth inhibition of human MCF7 cells by sulforhodamine B assay
# SF-268 = experiment: Growth inhibition of human SF268 cells assessed as cell growth at 10^-8 M by sulforhodamine B assay; details: read-out: Activity
# TK-10 [2] = experiment: Growth inhibition of human TK10 cells by sulforhodamine B assay
# OVCAR-5 = experiment: Growth inhibition of human OVCAR5 cells by sulforhodamine B assay
# MDA-MB-435 [3] = experiment: Growth inhibition of human MDA-MB-435 cells assessed as cell growth at 10^-8 M by sulforhodamine B assay; details: read-out: Activity
# OVCAR-3 [4] = experiment: Growth inhibition of human OVCAR3 cells assessed as cell growth at 10^-7 M by sulforhodamine B assay; details: read-out: Activity
# 786-0 = experiment: Growth inhibition of human 786-0 cells assessed as cell growth at 10^-6 M by sulforhodamine B assay; details: read-out: Activity
# TK-10 [5] = experiment: Growth inhibition of human TK10 cells assessed as cell growth at 10^-7 M by sulforhodamine B assay; details: read-out: Activity
# OVCAR-4 = experiment: Growth inhibition of human OVCAR4 cells assessed as cell growth at 10^-7 M by sulforhodamine B assay; details: read-out: Activity
# LOX IMVI = experiment: Growth inhibition of human LOXIMVI cells assessed as cell growth at 10^-7 M by sulforhodamine B assay; details: read-out: Activity
# KM12 [6] = experiment: Growth inhibition of human KM12 cells assessed as cell growth at 10^-4 M by sulforhodamine B assay; details: read-out: Activity
# HT-29 [7] = experiment: Growth inhibition of human HT-29 cells assessed as cell growth at 10^-4 M by sulforhodamine B assay; details: read-out: Activity
# A549 = experiment: Growth inhibition of human A549/ATCC cells assessed as cell growth at 10^-4 M by sulforhodamine B assay; details: read-out: Activity
# HT-29 [8] = experiment: Growth inhibition of human HT-29 cells assessed as cell growth at 10^-8 M by sulforhodamine B assay; details: read-out: Activity
# BT-549 [9] = experiment: Growth inhibition of human BT549 cells by sulforhodamine B assay
# SK-OV-3 = experiment: Growth inhibition of human SKOV3 cells assessed as cell growth at 10^-8 M by sulforhodamine B assay; details: read-out: Activity
# ACHN = experiment: Growth inhibition of human ACHN cells assessed as cell growth at 10^-6 M by sulforhodamine B assay; details: read-out: Activity
# A498 = experiment: Growth inhibition of human A498 cells assessed as cell growth at 10^-4 M by sulforhodamine B assay; details: read-out: Activity
# SNB-75 = experiment: Growth inhibition of human SNB75 cells by sulforhodamine B assay
# UACC-257 = experiment: Growth inhibition of human UACC257 cells assessed as cell growth at 10^-7 M by sulforhodamine B assay; details: read-out: Activity
# [10] = Growth inhibition of human Hs 578T cells by sulforhodamine B assay
# U-251 = experiment: Growth inhibition of human U251 cells by sulforhodamine B assay
# NCI-H522 = experiment: Growth inhibition of human NCI-H522 cells assessed as cell growth at 10^-7 M by sulforhodamine B assay; details: read-out: Activity
# NCI-H322M = experiment: Growth inhibition of human NCI-H322M cells assessed as cell growth at 10^-6 M by sulforhodamine B assay; details: read-out: Activity
# MDA-MB-435 [11] = experiment: Growth inhibition of human MDA-MB-435 cells assessed as cell growth at 10^-7 M by sulforhodamine B assay; details: read-out: Activity
# BT-549 [12] = experiment: Growth inhibition of human BT549 cells assessed as cell growth at 10^-4 M by sulforhodamine B assay; details: read-out: Activity
# [13] = Growth inhibition of human HCC2998 cells assessed as cell growth at 10^-7 M by sulforhodamine B assay; details: HCC 2998, read-out: Activity
# DU-145 = experiment: Growth inhibition of human DU145 cells assessed as cell growth at 10^-8 M by sulforhodamine B assay; details: read-out: Activity
# HCT-116 [14] = experiment: Growth inhibition of human HCT116 cells assessed as cell growth at 10^-6 M by sulforhodamine B assay; details: read-out: Activity
# Malme-3M = experiment: Growth inhibition of human MALME-3M cells assessed as cell growth at 10^-4 M by sulforhodamine B assay; details: read-out: Activity
# HCT-116 [15] = experiment: Growth inhibition of human HCT116 cells assessed as cell growth at 10^-8 M by sulforhodamine B assay; details: read-out: Activity
# CCRF-CEM = experiment: Growth inhibition of human CCRF-CEM cells assessed as cell growth at 10^-4 M by sulforhodamine B assay; details: read-out: Activity
# K562 = experiment: Growth inhibition of human K562 cells assessed as cell growth at 10^-8 M by sulforhodamine B assay; details: read-out: Activity
# KM12 [16] = experiment: Growth inhibition of human KM12 cells assessed as cell growth at 10^-8 M by sulforhodamine B assay; details: read-out: Activity
# UO-31 = experiment: Growth inhibition of human UO31 cells assessed as cell growth at 10^-7 M by sulforhodamine B assay; details: read-out: Activity
# SK-MEL-5 = experiment: Growth inhibition of human SK-MEL-5 cells assessed as cell growth at 10^-7 M by sulforhodamine B assay; details: read-out: Activity
# RXF 393 = experiment: Growth inhibition of human RXF393 cells assessed as cell growth at 10^-4 M by sulforhodamine B assay; details: read-out: Activity
# RPMI-8226 = experiment: Growth inhibition of human RPMI8226 cells by sulforhodamine B assay
# [17] = read-out: LC50 (the source's name)
# [18] = read-out: pLC50 (the source's name) (converted)
smiles,measurement,setting,value
C/C=C(/C)C(=O)O[C@@H]1CC(C)(C)C[C@H]2C3=CC[C@@H]4[C@@]5(C)CCC(=O)C(C)(C)[C@@H]5CC[C@@]4(C)[C@]3(C)CC[C@@]12C(=O)O [LANTADENE A],GI50,OVCAR-3 [1]; read-out: GI50,5.89 µM
same,CC50,OVCAR-3 [1]; [17],> 100 µM
same,TGI,OVCAR-3 [1]; read-out: TGI,> 100 µM
same,GI50,OVCAR-3 [1]; read-out: pGI50 (converted),5.89 µM
same,CC50,OVCAR-3 [1]; [18],> 100 µM
same,TGI,OVCAR-3 [1]; read-out: pTGI (converted),> 100 µM
same,GI50,MCF7; read-out: GI50,3.6 µM
same,CC50,MCF7; [17],> 100 µM
same,TGI,MCF7; read-out: TGI,> 100 µM
same,GI50,MCF7; read-out: pGI50 (converted),3.63 µM
same,CC50,MCF7; [18],> 100 µM
same,TGI,MCF7; read-out: pTGI (converted),> 100 µM
same,growth at 0.01 µM,SF-268,100%
same,GI50,TK-10 [2]; read-out: GI50,5.37 µM
same,CC50,TK-10 [2]; [17],> 100 µM
same,TGI,TK-10 [2]; read-out: TGI,> 100 µM
same,GI50,TK-10 [2]; read-out: pGI50 (converted),5.37 µM
same,CC50,TK-10 [2]; [18],> 100 µM
same,TGI,TK-10 [2]; read-out: pTGI (converted),> 100 µM
same,GI50,OVCAR-5; read-out: GI50,18.3 µM
same,CC50,OVCAR-5; [17],> 100 µM
same,TGI,OVCAR-5; read-out: TGI,> 100 µM
same,GI50,OVCAR-5; read-out: pGI50 (converted),18.2 µM
same,CC50,OVCAR-5; [18],> 100 µM
same,TGI,OVCAR-5; read-out: pTGI (converted),> 100 µM
same,growth at 0.01 µM,MDA-MB-435 [3],96%
same,growth at 0.1 µM,OVCAR-3 [4],109%
same,growth at 1 µM,786-0,93%
same,growth at 0.1 µM,TK-10 [5],102%
same,growth at 0.1 µM,OVCAR-4,95%
same,growth at 0.1 µM,LOX IMVI,95%
same,growth at 100 µM,KM12 [6],20%
same,growth at 100 µM,HT-29 [7],19%
same,growth at 100 µM,A549,10%
same,growth at 0.01 µM,HT-29 [8],99%
same,GI50,BT-549 [9]; read-out: GI50,4.73 µM
same,CC50,BT-549 [9]; [17],> 100 µM
same,TGI,BT-549 [9]; read-out: TGI,> 100 µM
same,GI50,BT-549 [9]; read-out: pGI50 (converted),4.68 µM
same,CC50,BT-549 [9]; [18],> 100 µM
same,TGI,BT-549 [9]; read-out: pTGI (converted),> 100 µM
same,growth at 0.01 µM,SK-OV-3,103%
same,growth at 1 µM,ACHN,92%
same,growth at 100 µM,A498,-20%
same,GI50,SNB-75; read-out: GI50,14.2 µM
same,CC50,SNB-75; [17],> 100 µM
same,TGI,SNB-75; read-out: TGI,> 100 µM
same,GI50,SNB-75; read-out: pGI50 (converted),14.1 µM
same,CC50,SNB-75; [18],> 100 µM
same,TGI,SNB-75; read-out: pTGI (converted),> 100 µM
same,growth at 0.1 µM,UACC-257,93%
same,GI50,[10]; read-out: GI50,5.1 µM
same,CC50,[10]; [17],> 100 µM
same,TGI,[10]; read-out: TGI,> 100 µM
same,GI50,[10]; read-out: pGI50 (converted),5.13 µM
same,CC50,[10]; [18],> 100 µM
same,TGI,[10]; read-out: pTGI (converted),> 100 µM
same,GI50,U-251; read-out: GI50,3.99 µM
same,CC50,U-251; [17],> 100 µM
same,TGI,U-251; read-out: TGI,> 100 µM
same,GI50,U-251; read-out: pGI50 (converted),3.98 µM
same,CC50,U-251; [18],> 100 µM
same,TGI,U-251; read-out: pTGI (converted),> 100 µM
same,growth at 0.1 µM,NCI-H522,97%
same,growth at 1 µM,NCI-H322M,90%
same,growth at 0.1 µM,MDA-MB-435 [11],95%
same,growth at 100 µM,BT-549 [12],18%
same,growth at 0.1 µM,[13],108%
same,growth at 0.01 µM,DU-145,104%
same,growth at 1 µM,HCT-116 [14],86%
same,growth at 100 µM,Malme-3M,17%
same,growth at 0.01 µM,HCT-116 [15],94%
same,growth at 100 µM,CCRF-CEM,9%
same,growth at 0.01 µM,K562,110%
same,growth at 0.01 µM,KM12 [16],103%
same,growth at 0.1 µM,UO-31,94%
same,growth at 0.1 µM,SK-MEL-5,83%
same,growth at 100 µM,RXF 393,-15%
same,GI50,RPMI-8226; read-out: GI50,2 µM
same,CC50,RPMI-8226; [17],> 100 µM
same,TGI,RPMI-8226; read-out: TGI,> 100 µM
same,GI50,RPMI-8226; read-out: pGI50 (converted),2 µM
same,CC50,RPMI-8226; [18],> 100 µM
same,TGI,RPMI-8226; read-out: pTGI (converted),> 100 µM
